Assay results taken from ChEMBL document CHEMBL1148784, “Synthesis and structure-affinity relationships of new 4-(6-iodo-H-imidazo[1,2-a]pyridin-2-yl)-N-dimethylbenzeneamine derivatives as ligands for human beta-amyloid plaques” (J Med Chem, 2007).

Target: Amyloid-beta precursor protein (Homo sapiens, UniProt P05067)
Assay: Binding affinity to human beta amyloid plaque in alzheimer's disease patient brain

Amyloid-beta precursor protein, sequence (P05067 whole entry): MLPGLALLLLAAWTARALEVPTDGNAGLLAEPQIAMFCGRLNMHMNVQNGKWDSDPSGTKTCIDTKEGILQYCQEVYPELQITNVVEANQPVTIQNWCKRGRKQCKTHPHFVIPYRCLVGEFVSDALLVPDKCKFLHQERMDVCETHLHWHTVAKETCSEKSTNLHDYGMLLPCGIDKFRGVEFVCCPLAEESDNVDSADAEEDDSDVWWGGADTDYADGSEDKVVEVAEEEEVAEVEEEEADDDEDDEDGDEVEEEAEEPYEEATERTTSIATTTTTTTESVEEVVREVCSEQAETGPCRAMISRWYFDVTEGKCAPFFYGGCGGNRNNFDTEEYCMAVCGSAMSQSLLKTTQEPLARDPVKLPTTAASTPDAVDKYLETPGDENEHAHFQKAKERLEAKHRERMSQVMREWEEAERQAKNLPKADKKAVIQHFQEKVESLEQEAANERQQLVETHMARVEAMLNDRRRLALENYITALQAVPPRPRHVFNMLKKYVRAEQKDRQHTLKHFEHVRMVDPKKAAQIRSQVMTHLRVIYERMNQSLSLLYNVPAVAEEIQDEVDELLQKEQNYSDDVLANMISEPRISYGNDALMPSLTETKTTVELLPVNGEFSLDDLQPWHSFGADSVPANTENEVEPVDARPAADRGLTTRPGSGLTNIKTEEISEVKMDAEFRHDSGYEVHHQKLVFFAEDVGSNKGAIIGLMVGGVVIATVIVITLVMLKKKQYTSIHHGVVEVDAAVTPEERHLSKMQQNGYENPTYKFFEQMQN

SMILES	Ki
CNc1ccc(-c2cn3cc(Br)ccc3n2)cc1C	> 1 µM
CN(C)c1ccc(-c2cn3cc(Br)cc(I)c3n2)cc1	0.183 µM
CN(C)c1ccc(-c2cn3cc(Br)cc(C#N)c3n2)cc1	> 0.18 µM
CC(=O)N(C)c1ccc(-c2cn3cc(Br)ccc3n2)cc1C	> 1 µM
CNc1ccc(-c2cn3cc(SCC(N)=O)ccc3n2)cc1C	> 1 µM
CNc1ccc(-c2cn3cc(SCCO)ccc3n2)cc1C	> 1 µM
CN(C(=O)C(F)(F)F)c1ccc(-c2cn3cc(Br)ccc3n2)cc1Br	> 1 µM
Cc1cc(-c2cn3cc(Br)ccc3n2)ccc1NC(=O)C(F)(F)F	> 1 µM
